Results as given in patent publication US10300048B2, “Thiazolidinones as cellular anandamide uptake inhibitors and their use in the treatment of psychiatric or neurological disorders and inflammation, in particular neuroinflammation” (UNIVERSITAT BERN, priority 2014, dated 2019).
Read-outs that look alike come from different tables or passages of the source.

Experiments:
hCB1 receptor = hCB1 receptor (Homo sapiens (Human), UniProt P21554); experiment: Radioligand CB receptor binding, [3H]-CP55,940 displacement on CHO-K1 hCB1 membranes; details: for CB1 receptor binding (%) at 10 µM: Table 4
Sequence of hCB1 receptor (P21554 whole entry): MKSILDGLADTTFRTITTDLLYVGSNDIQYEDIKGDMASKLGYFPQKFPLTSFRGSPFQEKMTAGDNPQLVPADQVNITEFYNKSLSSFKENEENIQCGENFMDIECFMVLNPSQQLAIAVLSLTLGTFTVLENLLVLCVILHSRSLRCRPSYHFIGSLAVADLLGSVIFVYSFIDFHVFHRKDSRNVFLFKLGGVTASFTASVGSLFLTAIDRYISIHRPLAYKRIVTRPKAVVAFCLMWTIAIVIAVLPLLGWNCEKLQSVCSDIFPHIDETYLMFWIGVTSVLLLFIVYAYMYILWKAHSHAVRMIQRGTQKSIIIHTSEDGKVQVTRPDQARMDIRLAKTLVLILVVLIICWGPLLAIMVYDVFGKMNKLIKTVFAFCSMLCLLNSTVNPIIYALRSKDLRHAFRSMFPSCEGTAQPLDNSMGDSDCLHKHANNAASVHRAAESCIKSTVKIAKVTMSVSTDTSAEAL
Procedure: Stably transfected CHO-K1 cells expressing hCB1 or hCB2 receptors (Gertsch et al., 2008, Proc Natl Acad Sci 105, 9099-104) were cultured in T150 cm^2 flasks up to 90% confluence. The medium was removed and cells were washed twice with PBS, 37° C. 10 mL of PBS was added and the cells were scraped and transferred into a falcon tube following homogenization by a Polytron PT1300D for 5 min at 30 krpm. Then, the homogenate was centrifuged (1400×g, 5 min) to remove debris. The supernatant was subjected to ultracentrifugation (64000×g, 45 min, 4° C.) to separate cytosolic from the membrane fraction. The supernatant was discharged and the pellet resuspended in PBS by sonication. Protein quantity was determined by BCA assay (Thermo Scientific) and aliquots of 500 μL were stored at −80° C. until use.
Radioligand CB Receptor Binding
Binding properties of ETI-T compounds to hCB1 or hCB2 receptors were performed as previously reported in a [^3H]-CP55,940 displacement assay (Gertsch et al., 2008, Proc Natl Acad Sci 105, 9099-104). WIN 55,212-2 was used as positive control. In brief, 20 μg protein of CHO-K1 hCB1 or hCB2 membrane preparations were thawed on ice and resuspended in a final volume of 500 μL binding buffer (50 mM Tris-HCl, 2.5 mM EDTA, 5 mM MgCl2, 0.5% fatty acid free BSA, pH 7.4) in silanized glass vials. [^3H]-CP55,940 (168 Ci/mmol) (PerkinElmer, Waltham, Mass., US) was added to a final concentration of 0.5 nM followed by the addition of competitors or vehicle in 5 μL DMSO. Membrane binding was equilibrated for 2 h at room temperature (25° C.). Samples were filter through a 0.1% polyethylenimine pre-soaked UniFilter®-96 GF/B plate (PerkinElmer) and washed twelve times with 167 μL ice-cold assay-buffer. The plate was dried, bottom sealed and 45 μL MicroScint 20 scintillation cocktail (PerkinElmer) were added before measured on a PerkinElmer 1450 Microbeta TRILUX liquid scintillation counter. Unspecific binding was determined by WIN 55,212-2, 10 μM and subtracted from all values. […].

[1] = system: AEA cellular uptake, U937 cells; experiment: [3H]-AEA cellular uptake inhibition in U937 cells; type: cell-based; details: Homo sapiens, U-937, U937 cells
Procedure: [^3H]-AEA Cellular Uptake
Screening for AEA cellular uptake inhibition was performed in a semi-automated procedure: Pipetting and washing steps were performed by a Biomek3000 laboratory workstation. First, required amounts of U937 cells were centrifuged at 100×g for 5 min and resuspended in RPMI (37° C.) to a final concentration of 2×10^6 cells/mL. Then, 250 μL of cell suspension (0.5×10^6 cells per sample) were transferred into AquaSil™ silanized glass vials (Chromacol 1.1-MTV) in 96-well format. After addition of 5 μL vehicle (DMSO) or compounds the cells were incubated at 37° C. for 15 min. As positive controls OMDM-2 and UCM707 were used at 10 μM in each run. The ETI-T compounds were measured at up to 7 concentrations in triplicates from 100 pM-100 μM. After pre-incubation, a mixture of 0.5 nM[ethanolamine-1-^3H]-AEA, (60 Ci/mmol) and 99.5 nM of cold AEA (final 100 nM) was added and samples were incubated at 37° C. for another 15 min. The reaction was stopped by rapid filtration over UniFilter-96 GF/C filters (PerkinElmer) pre-soaked with PBS 0.25% BSA. Cells were washed three times with 100 μL ice-cold PBS buffer containing 1% fatty acid free BSA. After drying, 45 μL MicroScint 20 scintillation cocktail (PerkinElmer, Waltham, Mass., US) was added to the wells and the plate was sealed. Radioactivity was measured by liquid scintillation counting on a PerkinElmer Wallac Trilux MicroBeta 1450 during 2 min. Non-specific binding of [^3H]AEA (100 nM) to the glass vials was never higher than 10%. IC50 values were calculated by GraphPad® by non-linear regression using the built-in log(inhibitor) vs. response-variable slope (four parameters) function.
(§1) Statistical analysis and IC50 values were determined using GraphPad® Prism 5.0 (GraphPad® Software, San Diego, Calif., US). Inhibition curves were obtained by non-linear regression using the built-in log(inhibitor) vs. response-variable slope (four parameters) function. Results were calculated as % of vehicle control of the corresponding fraction (cells, aqueous phase) if not mentioned else. In vivo results are shown in absolute values and were analyzed by a one-way ANOVA following a Tukey's multiple comparison test or student's t-test. If not indicated else the results were compared vs. vehicle (CTRL). *** P<0.001, ** P<0.01, * P<0.05, ns=not significant P>0.05.

BALB/c mice = experiment: In vivo tetrad test in BALB/c mice; details: 5.0 mg/kg i.p., vs. vehicle; for anti-nociceptive effect in the hot plate test / locomotion (RotaRod) / time spent in the immobile state (catalepsy, bar test): 60 min; for body temperature (tetrad test): 1 h post injection
Procedure: In vivo Tetrad Test in BALB/c Mice
In mice cannabimimetic substances induce a characteristic profile of behavioral effects (tetrad) which include suppression of locomotion, antinociception, hypothermia and catalepsy (Martin et al., 1991, Pharmacol Biochem Behav, 40, 471-8; Wiley, 2003, Eur J Pharmacol, 471, 185-93; Howlett et al., 2002, Pharmacol Rev, 54, 161-202). Male BALB/c mice (8 weeks old, 20-25 g body weight) were housed under standard environmental conditions (n=5 per cage) at 22-24° C. under a 12 h to 12 h light-dark cycle supplied with food and water ad libitum. ETI-T compounds were dissolved in pure DMSO and administered intraperitoneally (i.p) at doses of 5.0 mg/kg in 20 μL of vehicle 60 min prior to evaluation of behavioural effects. The tetrad test battery was carried out as follows: Rectal temperature was determined using a Physitemp thermometer (Physitemp Instruments Inc., Clifton, N.J. with a thermocoupled probe 1-2 cm into the rectum. The temperature was measured 10 min before compound administration and 1 h post injection. Changes in rectal temperature were expressed as the difference between basal and post injection temperatures. Catalepsy was determined using the bar test where mice were placed on a bar oriented parallel to and approximately 4-5 cm off of the ground. The duration of the time a mouse remained motionless (except respiration) with its front paws on the bar was scored over 40 s. Hypomotility was determined using the RotaRod performance test based on a rotating rod with forced motor activity being applied to the mouse. The maximal duration of this test was about 120 s at a velocity of 4 rpm. Analgesia was determined by the hot plate test. Mice were place on a heated plate (54-56° C.) in a Plexiglas cylinder for a maximum of 2 min. […] All experiments were repeated independently on different days. Animals were handled according to the guidelines on use and care of experimental animals (Mexican Official Norm NOM-062-ZOO-1999 published by SAGARPA in the Diario Oficial del Gobierno Mexicano, 2001), which is in accordance with the Code of Ethics of the Directive 2010/63/EU.
as §1

[2] = Table 1, 100 nM AEA, read-out: AEA uptake inhibition IC50
[3] = Table 4, read-out: AEA uptake IC50

Row | Compound | CB1 receptor binding (%) at 10 µM (hCB1 receptor) [%] | IC50 [1, 2] [nM] | IC50 [1, 3] [nM] | anti-nociceptive effect in the hot plate test (BALB/c mice) | locomotion (RotaRod) (BALB/c mice) | time spent in the immobile state (catalepsy, bar test) (BALB/c mice) | body temperature (tetrad test) (BALB/c mice) | CB1 receptor binding % binding at 10 μM (hCB1 receptor; Table 3) [%]
1 | COc1ccc(/C=C2\S/C(=N\c3ccc(OC)cc3)N(c3ccc(OC)cc3)C2=O)cc1 [Compound 5] | 37 | 148 | 148 | anti-nociceptive effect | reduced locomotion | increased time spent in the immobile state | decreased body temperature | –
2 | COc1cc(/C=C2\S/C(=N\c3ccccc3)N(c3ccccc3)C2=O)ccc1O [Compound 6] | 64 | 225 | 225 | anti-nociceptive effect | reduced locomotion | – | decreased body temperature | –
3 | O=C1/C(=C/c2cc(Cl)c(O)c(Cl)c2)S/C(=N\c2ccccc2)N1Cc1ccco1 [Compound 23] | 24 | 990 | 990 | anti-nociceptive effect | – | increased time spent in the immobile state | decreased body temperature | 24
